Test results published in patent US11209437B2, “Fluorescent probe and preparation method and use thereof” (Fluorescence Diagnosis (shanghai) Biotech Company Ltd., priority 2016, dated 2021).

Legend:
[1] = Viscosity responsiveness: fluorescence emission spectra of probes in glycerol and methanol; format: physicochemical; conditions: for Emission wavelength: excited at maximum excitation wavelength of each probe; for Fluorescence ratio in glycerol to methanol: probe 1×10^−5 M
Procedure, shortened: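 Each probe, from a 1×10^−2 M DMSO stock, was diluted to a final 1×10^−5 M in glycerol and in methanol. Fluorescence emission spectra were then recorded under identical conditions at each probe's maximum excitation wavelength.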

[2] = Fluorescence of free probe prior to binding to a protein tag; format: physicochemical
[3] = test system: CLIP protein tags; test: Fluorescence activation of probe after incubation with corresponding protein tag (CLIP); format: biochemical; conditions: probe 5 μM, protein tag 10 μM, 37° C., 1 hr
Description: Probes were mixed with corresponding protein tags to obtain mixed samples, in which the final probe concentration was 5 μM, and the final protein tag concentration was 10 μM. The mixed samples were incubated 37° C. for 1 hr, fluorescence spectrophotometer was used to detect the change in fluorescence intensity, and the results are shown in Table 1.
From the quantum yield of probe bound to protein tag, after reacting with the protein tags, the probes of the Examples could be detected to have significant signal enhancement in corresponding excitation transmission channels, the fluorescence activation multiple reached several hundreds to a thousand or more, and the brightness was high, which illustrates that after the probes of the Examples are bound to the protein tags, fluorescence of the probes can be activated, and the probes have good fluorescent molecular switching properties. In contrast, though the fluorescence of the reference probes could also be activated, the quantum yield of activated fluorescence was very low, and the brightness was very poor. In particular, in view of comparison results between probe 98 and reference probe 99, probe 101 and reference probe 102, probe 103 and reference probe 104, probe 105 and reference probe 106, probe 107 and reference probe 108, probe 109 and reference probe 110, probe 111 and reference probe 112, probe 114 and reference probe 115, probe 117 and reference probe 118, probe 120 and reference probe 121 in Table 1, for the same fluorescent dye, when the ligand is connected to the electron donor part of the fluorescent dye, the fluorescence activation brightness of the probe is much higher than the reference probe in which ligand is connected to the electron acceptor part of the fluorescent dye.

[4] = molecular target: T1, SNAP protein tags (Homo sapiens, UniProt P16455, A127T/A154D/C150Q/C62A/E30R/G131K/G132T/G153L/K125A/K32I/L33F/M134L/N157G/Q115S/Q116H/R128A/R135S/S151G/S152D/S159E); test: Fluorescence activation of probe after incubation with corresponding protein tag (SNAP); format: biochemical; conditions: probe 5 μM, protein tag 10 μM, 37° C., 1 hr
T1 sequence (P16455 1-182 E30R/K32I/L33F/C62A/Q115S/Q116H/K125A/A127T/R128A/G131K/G132T/M134L/R135S/C150Q/S151G/S152D/G153L/A154D/N157G/S159E): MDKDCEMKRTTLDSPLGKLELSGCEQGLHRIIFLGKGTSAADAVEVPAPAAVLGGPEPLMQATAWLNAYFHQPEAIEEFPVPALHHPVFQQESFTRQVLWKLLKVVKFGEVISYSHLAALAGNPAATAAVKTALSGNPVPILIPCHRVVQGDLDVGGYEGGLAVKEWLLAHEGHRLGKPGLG
Procedure, shortened: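 Probe (5 μM final) mixed with CLIP or SNAP protein tag (10 μM final) and incubated 1 hr at 37° C. Fluorescence intensity change measured by fluorescence spectrophotometer, with quantum yield of tag-bound probe determined.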

| SMILES | Emission wavelength [1] [nm] | Fluorescence ratio in glycerol to methanol [1] | Quantum yield of free probe [2] | Fluorescence activation multiple [3] | Quantum yield of probe bound to protein tag [3] | Fluorescence activation multiple [4] | Quantum yield of probe bound to protein tag [4] |
| --- | --- | --- | --- | --- | --- | --- | --- |
| CN(CCOC(=O)NCc1ccc(COc2nccc(N)n2)cc1)c1ccc(/C=C(\C#N)C(=O)OC(C)(C)C)cc1 [probe 7] | 480 | 1455 | <0.001 | 1502 | 0.23 |  |  |
| CN(CCOC(=O)NCc1ccc(COc2nccc(N)n2)cc1)c1ccc(/C=C(\C#N)c2nc3ccccc3o2)cc1 [probe 8] | 510 | 320 | 0.0018 | 68 | 0.12 |  |  |
| CN(CCOC(=O)NCc1ccc(COc2nccc(N)n2)cc1)c1ccc(/C=C(\C#N)c2nc3ccccc3s2)cc1 [probe 9] | 531 | 851 | <0.001 | 745 | 0.21 |  |  |
| CN1C(=O)/C(=C/c2ccc(N(C)CCOC(=O)NCc3ccc(COc4nccc(N)n4)cc3)cc2)N=C1/C=C/c1ccccc1 [probe 17] | 580 | 402 | <0.001 | 498 | 0.15 |  |  |
| CN(CCOC(=O)NCc1ccc(COc2nccc(N)n2)cc1)c1ccc(C2=C(C#N)C(=C(C#N)C#N)OC2(C)C)cc1 [probe 20] | 535 | 341 | <0.001 | 398 | 0.32 |  |  |
| CN(CCOC(=O)NCc1ccc(COc2nccc(N)n2)cc1)c1cc2sc(/C=C(\C#N)C(=O)OC(C)(C)C)cc2s1 [probe 27] | 555 | 1134 | <0.001 | 665 | 0.39 |  |  |
| CN(CCOC(=O)NCc1ccc(COc2nccc(N)n2)cc1)c1cc2sc(/C=C(\C#N)c3nc4ccccc4o3)cc2s1 [probe 28] | 590 | 1132 | <0.001 | 551 | 0.31 |  |  |
| CN(CCOC(=O)NCc1ccc(COc2nccc(N)n2)cc1)c1cc2sc(/C=C(\C#N)c3nc4ccccc4s3)cc2s1 [probe 29] | 610 | 998 | <0.001 | 621 | 0.33 |  |  |
| CN(CCOC(=O)NCc1ccc(COc2nccc(N)n2)cc1)c1ccc2cc(/C=C(\C#N)C(=O)OC(C)(C)C)sc2c1 [probe 34] | 570 | 1774 | <0.001 | 857 | 0.48 |  |  |
| CN(CCOC(=O)NCc1ccc(COc2nccc(N)n2)cc1)c1ccc2nc(/C=C(\C#N)C(=O)OC(C)(C)C)oc2c1 [probe 45] | 603 | 752 | <0.001 | 958 | 0.29 |  |  |
| CN(CCOC(=O)NCc1ccc(COc2nccc(N)n2)cc1)c1ccc2nc(/C=C(\C#N)C(=O)OC(C)(C)C)sc2c1 [probe 53] | 625 | 401 | <0.001 | 579 | 0.18 |  |  |
| CN(CCOC(=O)NCc1ccc(COc2nccc(N)n2)cc1)c1ccc(C#C/C=C(\C#N)C(=O)OC(C)(C)C)cc1 [probe 57] | 566 | 762 | <0.001 | 1026 | 0.31 |  |  |
| COCCNC(=O)/C(C#N)=C/c1ccc(-c2ccc(N(C)CCOC(=O)NCc3ccc(COc4nccc(N)n4)cc3)cc2)s1 [probe 69] | 620 | 217 | <0.001 | 491 | 0.27 |  |  |
| COCCNC(=O)/C(C#N)=C/c1cc2cc3sc(N(C)CCOC(=O)NCc4ccc(COc5nccc(N)n5)cc4)cc3cc2s1 [probe 72] | 640 | 268 | 0.001 | 486 | 0.47 |  |  |
| CN(CCOC(=O)NCc1ccc(COc2nccc(N)n2)cc1)c1ccc(-c2ccc(/C=C(\C#N)C(=O)OC(C)(C)C)s2)s1 [probe 80] | 655 | 218 | 0.0011 | 349 | 0.38 |  |  |
| CN(CCOC(=O)NCc1ccc(COc2nccc(N)n2)cc1)c1ccc(-c2ccc(/C=C(\C#N)c3nc4ccccc4o3)s2)s1 [probe 81] | 672 | 235 | <0.001 | 391 | 0.29 |  |  |
| CN(CCOC(=O)NCc1ccc(COc2nccc(N)n2)cc1)c1ccc(-c2ccc(/C=C(\C#N)c3nc4ccccc4s3)s2)s1 [probe 82] | 681 | 241 | <0.001 | 321 | 0.21 |  |  |
| CN(CCOC(=O)NCc1ccc(COc2nc(N)nc3[nH]cnc23)cc1)c1ccc(C#C/C=C(\C#N)C(=O)O)cc1 [probe 109] | 566 | 341 | <0.001 |  |  | 546 | 0.33 |
| CN(CCOC(=O)NCc1ccc(COc2nc(N)nc3[nH]cnc23)cc1)c1ccc2cc(/C=C(\C#N)C(=O)O)sc2c1 [probe 111] | 570 | 621 | <0.001 |  |  | 681 | 0.49 |
| CN(CCOC(=O)NCc1ccc(COc2nc(N)nc3[nH]cnc23)cc1)c1ccc2nc(/C=C(\C#N)C(=O)O)sc2c1 [probe 114] | 625 | 230 | <0.001 |  |  | 328 | 0.27 |
| CN(CCOC(=O)NCc1ccc(COc2nc(N)nc3[nH]cnc23)cc1)c1ccc(-c2ccc(/C=C(\C#N)C(=O)O)s2)cc1 [probe 117] | 620 | 321 | <0.001 |  |  | 562 | 0.39 |
| CN(CCOC(=O)NCc1ccc(COc2nc(N)nc3[nH]cnc23)cc1)c1ccc(-c2ccc(/C=C(\C#N)C(=O)O)s2)s1 [probe 120] | 656 | 421 | <0.001 |  |  | 469 | 0.42 |
